Reference: patent publication US7595294B2, “Vasoactive intestinal polypeptide pharmaceuticals” (Transition Therapeutics, Inc., priority 2004, dated 2009)
Where no end group is shown, it is not given here.

Tests used:
[1] = system: Rat islets; assay: In vitro bioassay with islet cell static cultures (insulin secretion, ELISA); assay type: cell-based; conditions: for Average Insulin secreted: Table 3; for Insulin secreted: Table 2, 120 min incubation; for Concentration at which maximal activity was exhibited in the assay: islet static culture, insulin secretion
Procedure: Islet isolation. […] Generally, the islets were prepared by injecting collagenase (10 mL of 0.23 mg/mL Liberase, Roche Molecular Biochemicals, Indianapolis, Ind.) into the pancreatic duct of the partially dissected pancreas and surgically removing it. All procedures were approved by the Institutional Animal Care and Use Committee at the University of Washington.
The pancreata were placed into 15 mL conical tubes containing 5 mL of 0.23 mg/mL Liberase and incubated at 37° C. for 30 min. The digestate was then filtered through a 400-micrometer stainless steel screen, rinsed with Hanks' buffered salt solution, and purified in a gradient solution of Optiprep (Nycomed, Oslo, Norway).
Bioassay. Islets were picked under a microscope and placed into 10 ml 3 mM Krebs Ringer Buffer (KRB) solution for washing. Islets were incubated in 3 mM glucose KRB for 60 min and then groups of 10 islets per well were placed into 200 μl media in a 96-well plate. […] The buffer conditions were KRB with 0.1% BSA, 20 mM HEPES and the assay was performed in quadruplicate. Supernatants were evaluated for insulin content using a commercial insulin enzyme-linked immunosorbent (ELISA) assay per manufacturer's directions.

[2] = system: db/db mice; assay: In vivo bioassay: blood glucose in db/db mice after intraperitoneal injection; conditions: for Mean Blood Glucose Levels: i.p.; for Activity (reduced plasma glucose), in words: high dose
Procedure: Tested Study Groups. Naïve, 8 weeks old female db/db mice were acclimated for one week, during which period animals were handled periodically to allow them to be acclimated to experiment procedures. Study groups contained 6 mice per group and were administered with one of the following by intraperitoneal injection:
(2) Positive control (exendin-4 or other standard treatment);
(3) Polypeptide Analog at high dose; or
(4) Polypeptide Analog at low dose.
A small volume of blood was taken from a cut at the tip of tail for blood sampling. Blood glucose levels were determined on a commercial, hand-held glucose meter. On Day 1, animals were injected with polypeptide analogs and controls in the morning. Blood samples were taken and analyzed immediately before injection and at 2, 4, 8, 14, and 24 hours after injection. Animals were allowed to feed, ad libitem, throughout the assay (Tsutsumi et al., Diabetes 51:1453-60 (2002)).

[3] = High dose, 0 hr (immediately before injection)
[4] = High dose, 2 hr after injection
[5] = High dose, 4 hr after injection
[6] = High dose, 8 hr after injection
[7] = High dose, 14 hr after injection
[8] = High dose, 24 hr after injection
[9] = Low dose, 0 hr (immediately before injection)
[10] = Low dose, 14 hr after injection
[11] = Low dose, 24 hr after injection

Substance | Average Insulin secreted ([1]; 100 nM peptide + 16 mM glucose) [ng/100 islets/min] | Average Insulin secreted ([1]; 1 uM peptide + 16 mM glucose) [ng/100 islets/min] | Mean Blood Glucose Levels [2, 3] [mmol/L] | Mean Blood Glucose Levels [2, 4] [mmol/L] | Mean Blood Glucose Levels [2, 5] [mmol/L] | Mean Blood Glucose Levels [2, 6] [mmol/L] | Mean Blood Glucose Levels [2, 7] [mmol/L] | Mean Blood Glucose Levels [2, 8] [mmol/L] | Mean Blood Glucose Levels [2, 9] [mmol/L] | Mean Blood Glucose Levels ([2]; Low dose, 2 hr after injection) [mmol/L] | Mean Blood Glucose Levels ([2]; Low dose, 4 hr after injection) [mmol/L] | Mean Blood Glucose Levels ([2]; Low dose, 8 hr after injection) [mmol/L] | Mean Blood Glucose Levels [2, 10] [mmol/L] | Mean Blood Glucose Levels [2, 11] [mmol/L] | Activity (reduced plasma glucose), in words ([2]; 2 hr after injection) | Activity (reduced plasma glucose), in words ([2]; 4 hrs post dosing) | Insulin secreted ([1]; 50 nM peptide + 16 mM glucose) [ng/100 islets/min] | Insulin secreted ([1]; 200 nM peptide + 16 mM glucose) [ng/100 islets/min] | Concentration at which maximal activity was exhibited in the assay [1] [nM] | Average Insulin secreted ([1]; 10 nM peptide + 16 mM glucose) [ng/100 islets/min]
TP-108: exemplary synthetic polypeptide analog of PACAP/VIP, amino acid sequence SEQ ID NO: 7 (HSDAVFTDNYTRLRKQLAAKKYLNSIKKGKRLLRKLQPPPK; ends and bridges not checked) | 4.10 | 5.65 |  |  |  |  |  |  |  |  |  |  |  |  |  |  |  |  |  | 
TP-106: highly hydrophobic polypeptide analog, designed to depot in the site of sc injection; SEQ ID NO: 5 (HSDAVFTDNYTRLRKQVAAKKYLNSIKKGKRELLEKLK) |  |  | 21.8 | 13.4 | 14.7 | 25.1 | 26.3 | 21.2 | 23.9 | 20.5 | 16.1 | 24.0 | 28.2 | 23.2 | statistically significant activity | maintains activity | 2.72 | 5.20 | 200 | 
TP-107: exemplary synthetic polypeptide analog of PACAP/VIP, amino acid sequence SEQ ID NO: 6 (HSDAVFTDNYTRLRKQVAAKKYLNWIKKAKRELLEKLK; ends and bridges not checked) | 6.10 | 6.07 |  |  |  |  |  |  |  |  |  |  |  |  |  |  |  |  | 100 | 2.89
TP-103: exemplary synthetic polypeptide analog of PACAP/VIP, amino acid sequence SEQ ID NO: 2 (HSDAVFTDNYTRLRKQVAAKKYLNSIKKGKRELLEKLLRKLK; ends and bridges not checked) |  |  | 20.7 | 17.3 | 16.9 | 23.4 | 23.7 | 25.0 | 22.9 | 20.5 | 17.6 | 26.4 | 24.6 | 21.4 |  |  |  |  |  | 
